Measured values: ChEMBL document CHEMBL1201862, “PubChem BioAssay data set” (2004)
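Briefly, cells in 96-well plates were exposed to five compound concentrations for 48 h, and endpoints were estimated by linear interpolation. Here, GI50 denotes the concentration required for 50% inhibition of growth.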 Calls of active or inactive are those of the source. Rule as the data show it: active = GI50 up to about 1.1 µM and inactive = higher. Where a SMILES comes first, the peptide text is derived from it.

Columns and labels:
Assay in all cases: NCI tumour cell line growth inhibition, 48 h
[1] = tested on: Malme-3M
[2] = tested on: OVCAR-4
[3] = tested on: SNB-75
[4] = tested on: RXF 393
[5] = tested on: COLO 205
[6] = tested on: ACHN
[7] = tested on: M14
[8] = tested on: Hs-578T
[9] = tested on: OVCAR-8
[10] = tested on: SNB-19
[11] = tested on: CCRF-CEM
[12] = tested on: RPMI-8226
[13] = tested on: K562
[14] = tested on: MCF7
[15] = tested on: MDA-N
[16] = tested on: SF-268
[17] = tested on: PC-3
[18] = tested on: U-251
[19] = tested on: NCI-H23
[20] = tested on: SK-OV-3

Measured: GI50

C=C(C)[C@H]1C2=CC(C)=C(O2)[C@@H](O)[C@H](C(=C)C)CCC2=C[C@H]1OC2=O [KALLOLIDE A]
inactive: [1] > 100 µM | [2] > 100 µM | [3] > 100 µM | [4] > 100 µM | [5] > 100 µM | [6] > 100 µM | [7] > 100 µM | [8] > 100 µM | [9] > 100 µM | [10] > 100 µM | [11] > 100 µM | [12] > 100 µM | [13] > 100 µM | [14] > 100 µM | [15] > 100 µM | [16] > 100 µM | [17] > 100 µM | [18] > 100 µM

COc1ccc(OC)c2nc3c(C(=O)NCCN(C)C)cccc3nc12
inactive: [1] 8.65 µM | [2] 3.09 µM | [3] 11.7 µM | [4] 5.85 µM | [5] 2.37 µM | [6] 1.98 µM | [7] 4.69 µM | [8] 5.89 µM | [19] 3.7 µM | [9] 2.54 µM | [10] 6.76 µM | [11] 2.29 µM | [12] 2.84 µM | [13] 3 µM | [14] 3.48 µM | [15] 4.52 µM | [16] 3.94 µM | [17] 4.04 µM | [18] 4.21 µM

Cn1c(=O)oc2cc(Br)ccc21
inactive: [1] > 100 µM | [2] > 100 µM | [3] > 100 µM | [4] > 100 µM | [5] > 100 µM | [6] > 100 µM | [7] > 100 µM | [8] > 100 µM | [19] > 100 µM | [9] > 100 µM | [10] > 100 µM | [11] > 100 µM | [12] > 100 µM | [13] > 100 µM | [14] > 100 µM | [15] > 100 µM | [16] > 100 µM | [17] > 100 µM | [20] > 100 µM

CCOP(=O)(CN1CCNCCN(CP(=O)(OCC)OCC)CC1)OCC
inactive: [2] > 100 µM | [3] > 100 µM | [4] > 100 µM | [5] > 100 µM | [6] > 100 µM | [7] > 100 µM | [8] > 100 µM | [19] > 100 µM | [9] > 100 µM | [10] > 100 µM | [11] > 31.6 µM | [12] > 100 µM | [13] > 100 µM | [14] > 100 µM | [15] > 100 µM | [16] > 100 µM | [17] > 100 µM | [20] > 100 µM | [18] > 100 µM

COc1cc(NC(C)=O)ccc1C(=O)N/N=C/c1ccc(Cl)cc1Cl
inactive: [1] 57.1 µM | [2] 23.2 µM | [3] 13.6 µM | [4] 20.7 µM | [5] > 100 µM | [6] 31.4 µM | [7] 48.1 µM | [8] 32.7 µM | [19] 71.9 µM | [9] 48.9 µM | [10] 42.8 µM | [11] 95.3 µM | [12] 65.6 µM | [13] 50.2 µM | [14] 4.42 µM | [15] 23.6 µM | [16] 32.6 µM | [17] 34.8 µM | [20] 29.7 µM

CC(C)CC(NC(=O)C(Cc1ccccc1)NC(=O)C(Cc1c[nH]c2ccccc12)NC(=O)CNC(=O)C(N)Cc1ccc(O)cc1)C(=O)O (configuration not stated) (H-YGWFL-OH; configuration not given here)
inactive: [1] 21.2 µM | [2] 30.2 µM | [3] 30.8 µM | [4] 40.3 µM | [5] 16.4 µM | [6] 44.5 µM | [7] 47.6 µM | [8] 42 µM | [19] 30.1 µM | [9] 46.5 µM | [10] 51.6 µM | [11] 42.6 µM | [12] 24.5 µM | [14] 37.4 µM | [15] 35.4 µM | [16] 47.3 µM | [17] 44.7 µM | [20] > 100 µM | [18] 34.6 µM

Nc1nc(N)c2nnn(C[C@H]3CC[C@@H](CO)C3)c2n1
inactive: [1] > 100 µM | [3] > 100 µM | [4] > 100 µM | [5] > 100 µM | [6] > 100 µM | [7] > 100 µM | [8] > 100 µM | [19] > 100 µM | [9] > 100 µM | [10] > 100 µM | [11] > 100 µM | [12] > 100 µM | [13] > 100 µM | [14] > 100 µM | [15] > 100 µM | [16] > 100 µM | [17] > 100 µM | [20] > 100 µM | [18] > 100 µM

O=c1[nH]cnc2c1ncn2[C@@H]1C[C@H]1CO
inactive: [1] > 100 µM | [2] > 100 µM | [3] > 100 µM | [4] > 100 µM | [5] > 100 µM | [6] > 100 µM | [7] > 100 µM | [8] > 100 µM | [19] > 100 µM | [9] > 100 µM | [10] > 100 µM | [11] > 100 µM | [12] > 100 µM | [13] > 100 µM | [14] > 100 µM | [15] > 100 µM | [16] > 100 µM | [17] > 100 µM | [18] > 100 µM

O=c1c2cc3c(=O)n4c(cc(-c5ccccc5)c5cc(Cl)ccc54)nc3cc2nc2cc(-c3ccccc3)c3cc(Cl)ccc3n12
inactive: [3] 36.8 µM | [4] 34.8 µM | [5] > 100 µM | [6] 76.6 µM | [7] > 100 µM | [8] 43.4 µM | [19] > 100 µM | [9] > 100 µM | [10] 45.6 µM | [11] > 100 µM | [12] > 100 µM | [13] > 100 µM | [14] > 100 µM | [15] > 100 µM | [16] > 100 µM | [17] > 100 µM | [20] > 100 µM | [18] 52.4 µM

C[C@@H](NC(C#N)c1ccco1)c1ccccc1 (some centres not stated)
inactive: [1] > 100 µM | [3] > 100 µM | [4] > 100 µM | [6] > 100 µM | [7] > 100 µM | [8] > 100 µM | [19] > 100 µM | [9] > 100 µM | [10] > 100 µM | [11] > 100 µM | [12] > 100 µM | [13] > 100 µM | [14] > 100 µM | [15] > 100 µM | [16] > 100 µM | [17] > 100 µM | [20] > 100 µM | [18] > 100 µM
